Test results from patent US11180484B2, “Pyrazole derivatives as plasma kallikrein inhibitors” (KALVISTA PHARMACEUTICALS LIMITED, priority 2016, dated 2021).
In brackets after ≈: the same amount, converted by molar mass. Where two headings read alike, the source gives them in different places.

Assays:
[1] = Predicted plasma clearance (Clp), well-stirred model, human; type: in vitro ADME; conditions: percentage of hepatic blood flow
Description: (§1) The predicted plasma clearance (Clp) is calculated using the well-stirred model (Rowland M, Benet L Z, and Graham G G. Clearance concepts in pharmacokinetics. J Pharmacokinet Biopharm. (1973) 1:123-136.), one of several models that can be used to extrapolate the in vitro data. The model assumes instantaneous and complete mixing of drug within the liver and is a function of intrinsic clearance, hepatic blood flow and free fraction of drug in the blood. The predicted plasma clearance in mL/min/kg is presented as a percentage of hepatic blood flow (LBF).

[2] = Plasma protein binding (PPB), rapid equilibrium dialysis, rat plasma; type: in vitro ADME; conditions: 5 μM test compound, dialysis 5 hrs at 37° C.
Description: The fraction unbound in plasma was determined using ThermoScientific™ Pierce™ Rapid Equilibrium Dialysis Technology (Single-Use plate with inserts, 8K MWCO). 5 μM test compound was spiked into human or rat plasma (300 μL) and dialysed against 146.5 mM phosphate buffer (500 μL) for 5 hrs at 37° C., shaking at 1200 rpm. Reference samples from the non-dialysed plasma were taken before the incubation to enable an assessment of recovery. Test compound concentrations were determined in plasma and buffer compartments by LCMS against a calibration curve. The fraction unbound in plasma was determined using standard methodology (Waters N J et al (2008) J Pharm Sci 97(10); 4586-95). Results are presented as percent plasma protein bound (% PPB).

[3] = Predicted plasma clearance (Clp), well-stirred model, rat; type: in vitro ADME; conditions: percentage of hepatic blood flow
Description: as §1

[4] = Solubility in water and 0.1N HCl (aq); type: physicochemical; conditions: thermodynamic from solid, incubated at 1 mg/mL, 37° C.
Description: Solubility was determined in water and 0.1N HCl (aq). Test compounds were incubated at 1 mg/mL for 24 hrs at 37° C. on a shaking platform (500 rpm). Samples were taken at 1, 4 and 24 hrs and centrifuged at 15,000 g for 10 min. Test compound concentration in the supernatant was determined by LCMS against a standard curve.

Human FXIa = Human FXIa (Homo sapiens (Human), UniProt P03951); assay: Determination of the % inhibition / IC50 for FXIa; type: biochemical; conditions: for IC50: 25° C., substrate Z-Gly-Pro-Arg-AFC; for inhibition at 40 µM: read-out: % Inhibition @ 40 μM (human FXIa)
Human FXIa, sequence (P03951 388-625): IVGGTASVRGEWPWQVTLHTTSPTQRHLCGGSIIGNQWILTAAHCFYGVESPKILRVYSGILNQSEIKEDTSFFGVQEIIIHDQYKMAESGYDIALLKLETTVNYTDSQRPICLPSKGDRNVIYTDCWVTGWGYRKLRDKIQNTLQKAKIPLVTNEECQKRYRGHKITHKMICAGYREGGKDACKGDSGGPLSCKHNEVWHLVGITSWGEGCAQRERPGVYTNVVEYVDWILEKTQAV
Human FXIa, sequence (P03951 19-387): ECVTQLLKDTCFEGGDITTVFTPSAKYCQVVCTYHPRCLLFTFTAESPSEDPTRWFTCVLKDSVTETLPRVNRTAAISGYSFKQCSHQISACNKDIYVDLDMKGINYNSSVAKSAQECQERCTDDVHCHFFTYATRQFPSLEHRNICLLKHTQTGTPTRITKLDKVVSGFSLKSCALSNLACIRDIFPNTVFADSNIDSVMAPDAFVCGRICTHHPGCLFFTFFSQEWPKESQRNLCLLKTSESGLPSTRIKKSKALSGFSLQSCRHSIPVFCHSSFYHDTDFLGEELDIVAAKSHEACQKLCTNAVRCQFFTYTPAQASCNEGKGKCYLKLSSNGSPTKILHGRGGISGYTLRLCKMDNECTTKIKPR
Description: FXIa inhibitory activity in vitro was determined using standard published methods (see e.g. Johansen et al., Int. J. Tiss. Reac. 1986, 8, 185; Shori et al., Biochem. Pharmacol., 1992, 43, 1209; Sturzebecher et al., Biol. Chem. Hoppe-Seyler, 1992, 373, 1025). […]

[5] = Plasma protein binding (PPB), rapid equilibrium dialysis, human plasma; type: in vitro ADME; conditions: 5 μM test compound, dialysis 5 hrs at 37° C.
Description: The fraction unbound in plasma was determined using ThermoScientific™ Pierce™ Rapid Equilibrium Dialysis Technology (Single-Use plate with inserts, 8K MWCO). […] Reference samples from the non-dialysed plasma were taken before the incubation to enable an assessment of recovery. Test compound concentrations were determined in plasma and buffer compartments by LCMS against a calibration curve. […] Results are presented as percent plasma protein bound (% PPB).

Human plasma kallikrein [6] = target: T1, Human plasma kallikrein (Homo sapiens (Human), UniProt P03952); assay: Determination of the IC50 for plasma kallikrein; type: biochemical; conditions: 25° C., substrate H-DPro-Phe-Arg-AFC; read-out: IC50 (human PKal)
T1 sequence (P03952 391-638): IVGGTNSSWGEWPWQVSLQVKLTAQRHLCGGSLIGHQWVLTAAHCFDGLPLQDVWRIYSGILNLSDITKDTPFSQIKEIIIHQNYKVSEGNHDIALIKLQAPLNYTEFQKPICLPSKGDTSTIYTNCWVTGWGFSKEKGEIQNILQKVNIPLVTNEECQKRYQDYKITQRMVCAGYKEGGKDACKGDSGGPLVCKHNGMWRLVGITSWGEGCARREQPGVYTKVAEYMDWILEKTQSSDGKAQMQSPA
T1 sequence (P03952 20-390): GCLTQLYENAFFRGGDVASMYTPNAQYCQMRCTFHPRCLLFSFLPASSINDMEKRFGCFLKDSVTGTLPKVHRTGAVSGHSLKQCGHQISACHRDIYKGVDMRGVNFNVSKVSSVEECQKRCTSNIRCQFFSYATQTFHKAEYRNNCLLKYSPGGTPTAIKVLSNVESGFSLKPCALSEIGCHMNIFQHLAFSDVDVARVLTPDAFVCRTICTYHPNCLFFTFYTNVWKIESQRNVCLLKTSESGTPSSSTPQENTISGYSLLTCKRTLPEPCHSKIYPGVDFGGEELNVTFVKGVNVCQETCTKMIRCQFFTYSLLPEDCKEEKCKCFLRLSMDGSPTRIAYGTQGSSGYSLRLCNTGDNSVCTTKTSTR
Description: (§2) Human plasma kallikrein (Protogen) was incubated at 25° C. with the fluorogenic substrate H-DPro-Phe-Arg-AFC and various concentrations of the test compound. Residual enzyme activity (initial rate of reaction) was determined by measuring the change in […] at 410 nm and the IC50 value for the test compound was determined.

Human KLK1 = Human KLK1 (Homo sapiens (Human), UniProt P06870); assay: Determination of the IC50 for KLK1; type: biochemical; conditions: 25° C., substrate H-DVal-Leu-Arg-AFC
Human KLK1, sequence (P06870 25-262): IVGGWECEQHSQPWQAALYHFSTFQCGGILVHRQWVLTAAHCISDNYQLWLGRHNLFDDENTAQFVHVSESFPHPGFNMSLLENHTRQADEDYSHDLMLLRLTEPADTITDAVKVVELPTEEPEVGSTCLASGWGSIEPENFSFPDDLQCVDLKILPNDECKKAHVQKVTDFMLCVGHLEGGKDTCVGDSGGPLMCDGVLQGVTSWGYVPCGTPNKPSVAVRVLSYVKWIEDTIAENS
Description: as §2, with “KLK1 (Callbiochem)” for “plasma kallikrein (Protogen)”, “H-DVal-Leu-Arg-AFC” for “H-DPro-Phe-Arg-AFC”

[7] = Pharmacokinetics following a single oral dose in male Sprague-Dawley rats; type: in vivo; conditions: rat, single po dose (nominal 10 mg/kg; actual dose per row in column Dose po), 10% DMSO/10% cremophor/80% SWFI, plasma
Description: Pharmacokinetic studies of the compounds in Table 13 were performed to assess the pharmacokinetics following a single oral dose in male Sprague-Dawley rats. Two rats were given a single po dose of 5 mL/kg of a nominal 2 mg/mL (10 mg/kg) composition of test compound in vehicle. Following dosing, blood samples were collected over a period of 24 hours. Sample times were 5, 15 and 30 minutes then 1, 2, 4, 6, 8 and 12 hours. Following collection, blood samples were centrifuged and the plasma fraction analysed for concentration of test compound by LCMS.

[8] = Intrinsic clearance in rat liver microsomes; type: in vitro ADME; conditions: rat liver microsomes 0.5 mg/mL, 5 μM test compound, 37° C.; read-out: rat liver microsome (Clint μL/min/mg protein)
Description: (§3) Rat or human liver microsomes (0.5 mg/mL; Corning) were incubated with 5 μM test compound at 37° C. on a shaking platform (150 rpm). Samples were taken at 0, 6, 12, 18, 24 and 60 min and test compound concentrations were determined by LCMS against a calibration curve.

Human plasma kallikrein [9] = target: T1, Human plasma kallikrein; assay: Determination of the Ki for plasma kallikrein (mixed-model inhibition); type: biochemical; conditions: for Ki: human plasma kallikrein, mixed-model inhibition equation; for Alpha: parameter of the mixed-model equation indicating mechanism of inhibition
Description: Plasma kallikrein inhibitory activity in vitro was determined using standard published methods (e.g. Johansen et al., Int. J. Tiss. Reac. 1986, 8, 185; Shori et al., Biochem. Pharmacol., 1992, 43, 1209; Sturzebecher et al., Biol. Chem. Hoppe-Seyler, 1992, 373, 1025). […]. Residual enzyme activity (initial rate of reaction) was determined by measuring the change in fluorescence at 410 nm. The Ki value for the test compound was determined using the mixed-model inhibition equation (based on Equation 3.2 in: RA Copeland, Evaluation of Enzyme Inhibitors in Drug Discovery, Wiley 2005) in GraphPad Prism. The mixed model equation includes competitive, uncompetitive and noncompetitive inhibition as special cases and the parameter of Alpha to indicate mechanism of inhibition.

Human Factor XIIa = Human Factor XIIa (Homo sapiens (Human), UniProt P00748); assay: Factor XIIa inhibitory activity in vitro; type: biochemical; conditions: 25° C., substrate H-DPro-Phe-Arg-AFC; read-out: IC50 (human FXIIa)
Human Factor XIIa, sequence (P00748 373-615): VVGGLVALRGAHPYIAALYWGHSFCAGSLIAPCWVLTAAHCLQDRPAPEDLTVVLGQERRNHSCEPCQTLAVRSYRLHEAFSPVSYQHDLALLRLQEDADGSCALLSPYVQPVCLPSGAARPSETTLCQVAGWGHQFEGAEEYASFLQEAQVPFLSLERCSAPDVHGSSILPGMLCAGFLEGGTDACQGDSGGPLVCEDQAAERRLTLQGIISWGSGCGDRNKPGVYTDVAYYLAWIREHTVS
Description: as §2, with “Factor XIIa (Enzyme Research Laboratories)” for “plasma kallikrein (Protogen)”

[10] = In vitro permeability, Caco-2 model for oral absorption; type: in vitro ADME; conditions: human, apical to basolateral, 50 μM test compound, 37° C.
Description: In vitro permeability was determined using the Caco-2 model for oral absorption. The methodology was adapted from standard published methods (Wang Z, Hop C. E., Leung K. H. and Pang J. (2000) J Mass Spectrom 35(1); 71-76). The Caco-2 monolayers were established in a Biocoat™ HTS fibrillar collagen 24 well multiwell insert system (1.0 μm, PET membrane, Corning 354803) in which 200,000 cells were seeded into each insert and maintained over 3 days before being utilised in the permeability assay. For the assay, 50 μM test compound is added to the apical side of the inserts and incubated for 1 hour at 37° C. on a shaking platform (120 rpm). Apical to basolateral transport was determined by measuring the test article in both compartments by LCMS following the 1 hour incubation. The integrity of the Caco-2 monolayers was confirmed by two methods, (i) comparison of pre- and post-experiment transepithelial electrical resistance (TEER) and, (ii) assessment of Lucifer Yellow flux.

[11] = Intrinsic clearance in human liver microsomes; type: in vitro ADME; conditions: human liver microsomes 0.5 mg/mL, 5 μM test compound, 37° C.; read-out: Human liver microsome (Clint μL/min/mg protein)
Description: as §3

[12] = simulated gastric fluid, 0.1N HCl (aq), read-out: Solubility 0.1N HCl (aq)
[13] = water, read-out: Solubility Water

SMILES	Predicted in vivo human Clp (% LBF) [1] [% LBF]	fraction unbound at 5 h, 5 μM [2]	Predicted in vivo rat Clp (% LBF) [3] [% LBF]	IC50 (Human FXIa) [nM]	fraction unbound at 5 h, 5 μM [5]	IC50 (Human plasma kallikrein [6]) [nM]	IC50 (Human KLK1) [nM]	Cmax [7] [ng/mL]	Tmax [7] [h]	microsomal CLint at 5 μM [8] [µL/min/mg]	Ki (Human plasma kallikrein [9]) [nM]	Alpha (Human plasma kallikrein [9])	IC50 (Human Factor XIIa) [nM]	Papp at 1 h, 50 μM [10] [×10⁻⁶ cm/s]	microsomal CLint at 5 μM [11] [µL/min/mg]	inhibition at 40 µM (Human FXIa; 40 μM test compound) [%]	solubility [4, 12] [µg/mL]	solubility [4, 13] [µg/mL]	inhibition at 40 µM (Human FXIa) [%]
COCc1nn(Cc2ccc(Cn3ccccc3=O)cc2)cc1C(=O)NCc1nccc(OC)c1C [Example 22, N-[(4-methoxy-3-methylpyridin-2-yl)methyl]-3-(methoxymethyl)-1-({4-[(2-oxopyridin-1-yl)methyl]phenyl}methyl)pyrazole-4-carboxamide]	7	< 0.01	<1.6	> 40000	0.08	4.9	> 40000	1020	1	68	1.9	29	> 40000	–	–	–	900 (≈ 1850 µM)	60 (≈ 123 µM)	5
COCc1nn(Cc2cnc(N3CCCC3)nc2)cc1C(=O)NCc1cc(OC)ccc1-n1cnnn1 [Example 80, N-{[5-methoxy-2-(1,2,3,4-tetrazol-1-yl)phenyl]methyl}-3-(methoxymethyl)-1-{[2-(pyrrolidin-1-yl)pyrimidin-5-yl]methyl}pyrazole-4-carboxamide]	4	0.04	6	779	0.08	10.6	> 4000	–	–	54	2.4	14.8	> 4000	23	14	–	–	–	–
COCc1nn(Cc2ccc(Cn3ccccc3=O)cc2)cc1C(=O)NCc1c(F)cccc1-n1cnnn1 [Reference Example H, N-{[2-Fluoro-6-(1,2,3,4-tetrazol-1-yl)phenyl]methyl}-3-(methoxymethyl)-1-({4-[(2-oxopyridin-1-yl)methyl]phenyl}methyl)pyrazole-4-carboxamide, reference compound]	14	0.13	26	> 40000	0.16	1.1	> 40000	–	–	94	0.52	108	> 40000	12	25	–	–	–	–

Compounds with a lower IC50 (Human FXIa), results first:

Predicted in vivo human Clp (% LBF) [1] [% LBF]	fraction unbound at 5 h, 5 μM [2]	Predicted in vivo rat Clp (% LBF) [3] [% LBF]	IC50 (Human FXIa) [nM]	fraction unbound at 5 h, 5 μM [5]	IC50 (Human plasma kallikrein [6]) [nM]	IC50 (Human KLK1) [nM]	Cmax [7] [ng/mL]	Tmax [7] [h]	microsomal CLint at 5 μM [8] [µL/min/mg]	Ki (Human plasma kallikrein [9]) [nM]	Alpha (Human plasma kallikrein [9])	IC50 (Human Factor XIIa) [nM]	Papp at 1 h, 50 μM [10] [×10⁻⁶ cm/s]	microsomal CLint at 5 μM [11] [µL/min/mg]	inhibition at 40 µM (Human FXIa; 40 μM test compound) [%]	SMILES	solubility [4, 12] [µg/mL]	solubility [4, 13] [µg/mL]	inhibition at 40 µM (Human FXIa) [%]
3	< 0.01	<2.0	235	0.03	1.4	> 40000	845	1.5	82	0.17	4.2	> 40000	28	29	100	COCc1nn(Cc2ccc(N3CCCC3)nc2)cc1C(=O)NCc1c(-n2cnnn2)ccc(OC)c1F [Example 77, N-{[2-fluoro-3-methoxy-6-(1,2,3,4-tetrazol-1-yl)phenyl]methyl}-3-(methoxymethyl)-1-{[6-(pyrrolidin-1-yl)pyridin-3-yl]methyl}pyrazole-4-carboxamide]	–	–	–
2	0.03	3	477	0.1	1.7	> 40000	981	0.5	35	0.28	2.78	> 40000	16	4	99	COCc1nn(Cc2cnc(N3CCC(F)(F)C3)nc2)cc1C(=O)NCc1c(-n2cnnn2)ccc(OC)c1F [Example 86, 1-{[2-(3,3-Difluoropyrrolidin-1-yl)pyrimidin-5-yl]methyl}-N-{[2-fluoro-3-methoxy-6-(1,2,3,4-tetrazol-1-yl)phenyl]methyl}-3-(methoxymethyl)pyrazole-4-carboxamide]	50 (≈ 89.5 µM)	1 (≈ 1.79 µM)	–
